Measured values as given in article PMC8400246, “Antimicrobial Activity and Action Mechanisms of Arg-Rich Short Analog Peptides Designed from the C-Terminal Loop Region of American Oyster Defensin (AOD)” (Marine Drugs, 2021).
Positions of bridges follow the written chain, without caps; N, C: chain ends. Residues, ends and D or L forms follow the SMILES beside them.

Columns and labels:
B. subtilis KCTC1021 = experiment: Ultrasensitive radial diffusion assay (URDA), MEC; assay type: cell-based, Bacillus subtilis; conditions: B. subtilis KCTC1021, Gram +, 10 mM phosphate buffer pH 6.6, 37 °C, X-intercept of clearing zone vs log10 concentration, triplicate, averaged
Description: (§1) The antimicrobial activity of the AOD analogs was assessed with an ultrasensitive radial diffusion assay (URDA), as described previously. The antimicrobial activity of the analogs (from 31.3 to 1000 μg/mL, 5 μL volume) was tested against several bacteria, including Bacillus subtilis KCTC1021, Streptococcus mutans KCCM40105, Aeromonas hydrophila KCTC2358, Escherichia coli D31, E. coli ML35p, Pseudomonas aeruginosa KCTC2004, Salmonella enterica KCTC2514, and Shigella sonnei KCTC2009. In addition, Cutibacterium acnes KCTC3314, Staphylococcus epidermidis KCTC1917, and Candida albicans KCTC7965 were used for the anti-acne activity test. All except C. acnes KCTC3314 were grown overnight for 18 h in tryptic soy broth (TSB; for bacteria) or Sabouraud dextrose broth (SDB; for C. albicans) at the appropriate temperature (25 °C for A. hydrophila, 37 °C for the others). C. acnes was grown for 72 h in reinforced clostridial medium (RCM) under anaerobic conditions with an anaerobic gas-generating pouch (GasPak EZ; Becton Dickinson and Company, Sparks, MD, USA) at 37 °C. Following overnight or 72-h incubation, the bacterial and C. albicans suspensions were diluted to a McFarland turbidity standard level of 0.5 (Vitek Colorimeter #52-1210; Hach, Loveland, CO, USA) corresponding to approximately 10^8 colony forming units (CFU)/mL for bacteria and 10^6 CFU/mL for C. albicans. Diluted bacterial or C. albicans suspension (0.5 mL) was added to 9.5 mL underlay gel containing 5 × 10^6 or 5 × 10^4 CFU/mL in 10 mM phosphate buffer (pH 6.6) with 0.03% TSB (or RCM) or 0.03% SDB and 1% Type I low-electroendosmosis agarose. The AOD analogs were serially diluted two-fold in 5 µL acidified water (0.01% acetic acid; HAc) and each dilution was added to 2.5-mm diameter wells in the 1-mm thick underlay gel. After incubation for 3 h at either 25 °C (for A. hydrophila) or 37 °C (for the others), the bacterial or yeast suspension was overlaid with 10 mL double-strength overlay gel containing 6% TSB, RCM, or SDB with 10 mM phosphate buffer (pH 6.6) in 1% agarose. Plates were incubated for an additional 18–24 h (72 h for C. acnes) and the clearing zone diameters were measured. After subtracting the diameter of the well (2.5 mm), the clearing zone diameter was expressed in units (0.1 mm = 1 U).
(§2) The minimal effective concentration (MEC; μg/mL) of the AOD analogs was calculated as the X-intercept of a plot of clearing zone diameter units against the log10 of the peptide concentration. Piscidin 1, an α-helical AMP isolated from hybrid striped bass (Morone saxatilis × Morone chrysops) was used as a positive control.

C. acnes KCTC3314 = experiment: Ultrasensitive radial diffusion assay (URDA), MEC; assay type: cell-based, Cutibacterium acnes; conditions: C. acnes KCTC3314, Gram +, anaerobic, RCM, 72 h, 37 °C, triplicate, averaged
Description: as §1, §2

S. epidermidis KCTC1917 = experiment: Ultrasensitive radial diffusion assay (URDA), MEC; assay type: cell-based, Staphylococcus epidermidis; conditions: S. epidermidis KCTC1917, Gram +, pH 6.6, 37 °C, triplicate, averaged
Description: as §1, §2

S. mutans KCCM40105 = experiment: Ultrasensitive radial diffusion assay (URDA), MEC; assay type: cell-based, Streptococcus mutans; conditions: S. mutans KCCM40105, Gram +, pH 6.6, 37 °C, triplicate, averaged
Description: as §1, §2

A. hydrophila KCTC2358 = experiment: Ultrasensitive radial diffusion assay (URDA), MEC; assay type: cell-based, Aeromonas hydrophila; conditions: A. hydrophila KCTC2358, Gram -, pH 6.6, 25 °C, triplicate, averaged
Description: as §1, §2

E. coli D31 = experiment: Ultrasensitive radial diffusion assay (URDA), MEC; assay type: cell-based, Escherichia coli; conditions: E. coli D31, Gram -, pH 6.6, 37 °C, triplicate, averaged
Description: as §1, §2

E. coli ML35p = experiment: Ultrasensitive radial diffusion assay (URDA), MEC; assay type: cell-based, Escherichia coli; conditions: Gram -, pH 6.6, 37 °C, triplicate, averaged
Description: as §1, §2

P. aeruginosa KCTC2004 = experiment: Ultrasensitive radial diffusion assay (URDA), MEC; assay type: cell-based, Pseudomonas aeruginosa; conditions: P. aeruginosa KCTC2004, Gram -, pH 6.6, 37 °C, triplicate, averaged
Description: as §1, §2

S. enterica KCTC2514 = experiment: Ultrasensitive radial diffusion assay (URDA), MEC; assay type: cell-based, Salmonella enterica; conditions: S. enterica KCTC2514, Gram -, pH 6.6, 37 °C, triplicate, averaged
Description: as §1, §2

S. sonnei KCTC2009 = experiment: Ultrasensitive radial diffusion assay (URDA), MEC; assay type: cell-based, Shigella sonnei; conditions: S. sonnei KCTC2009, Gram -, pH 6.6, 37 °C, triplicate, averaged
Description: as §1, §2

C. albicans KCTC7965 = experiment: Ultrasensitive radial diffusion assay (URDA), MEC; assay type: cell-based, Candida albicans; conditions: C. albicans KCTC7965, yeast, SDB, pH 6.6, 37 °C, triplicate, averaged
Description: as §1, §2

[1] = test system: tested strains (bacteria and the yeast C. albicans); experiment: URDA, overall antimicrobial activity; assay type: cell-based; conditions: all tested strains
Description: The antimicrobial activity of the AOD analogs was assessed with an ultrasensitive radial diffusion assay (URDA), as described previously. The antimicrobial activity of the analogs (from 31.3 to 1000 μg/mL, 5 μL volume) was tested against several bacteria, including Bacillus subtilis KCTC1021, Streptococcus mutans KCCM40105, Aeromonas hydrophila KCTC2358, Escherichia coli D31, E. coli ML35p, Pseudomonas aeruginosa KCTC2004, Salmonella enterica KCTC2514, and Shigella sonnei KCTC2009. In addition, Cutibacterium acnes KCTC3314, Staphylococcus epidermidis KCTC1917, and Candida albicans KCTC7965 were used for the anti-acne activity test. All except C. acnes KCTC3314 were grown overnight for 18 h in tryptic soy broth (TSB; for bacteria) or Sabouraud dextrose broth (SDB; for C. albicans) at the appropriate temperature (25 °C for A. hydrophila, 37 °C for the others). C. acnes was grown for 72 h in reinforced clostridial medium (RCM) under anaerobic conditions with an anaerobic gas-generating pouch (GasPak EZ; Becton Dickinson and Company, Sparks, MD, USA) at 37 °C. […] Plates were incubated for an additional 18–24 h (72 h for C. acnes) and the clearing zone diameters were measured. […]
The minimal effective concentration (MEC; μg/mL) of the AOD analogs was calculated as the X-intercept of a plot of clearing zone diameter units against the log10 of the peptide concentration. […]

100-bp DNA ladder = experiment: DNA binding assay (electrophoretic mobility shift); conditions: 1 μg analog with 0.2 μg 100-bp DNA ladder, 37 °C, 60 min, 1.8% agarose gel with EtBr
Description: To evaluate the binding ability of the AOD analogs to intracellular components, a DNA binding assay was performed as previously described with minor modifications. The DNA-binding ability of the AOD analogs was assessed through observation of the inhibition of migration of DNA bands through agarose gels. A commercial 100-bp DNA ladder (0.2 μg) (Bioneer Corp., Daejeon, South Korea) was mixed with each analog (1 μg) in 0.01% acetic acid, and the resulting mixture was incubated at 37 °C for 60 min and then electrophoresed on 1.8% agarose gels containing 0.5 μg/mL ethidium bromide (EtBr). HAc (0.01%) was used as a negative control.
To determine the concentration required for the interaction of AOD analogs with DNA, a DNA binding assay was performed with various mixing ratios of analog A3 (0.25–1.0 μg/mL) and 100-bp DNA ladder (0.1–0.4 μg), as described above.

[2] = test system: 100-bp DNA ladder and DNA polymerase; experiment: Competitive binding between DNA and DNA polymerase; conditions: 1 μg peptide, 0.2 μg 100-bp DNA ladder, DNA polymerase 1.0 μL (5 units/μL), 37 °C, 60 min
Description: To assess the preferential binding ability of the AOD analogs to DNA or DNA polymerase, a competitive binding assay was performed. Briefly, AOD analog was added to a reaction mixture containing DNA or DNA polymerase and incubated for 60 min at 37 °C. […] Piscidin 1 and 0.01% HAc were the positive and negative controls, respectively.

[3] = test system: E. coli DH5α genomic DNA (16S ribosomal gene); experiment: DNA amplification (PCR) inhibition assay; assay type: biochemical, Escherichia coli; conditions: 1.5 µg of each analog, 0.2 µg E. coli DH5α gDNA, 30 cycles
Description: To determine whether AOD analogs target DNA amplification, the ability of the analogs to inhibit DNA amplification was assessed using E. coli DH5α genomic DNA (gDNA). Total gDNA was extracted using the phenol–chloroform method, as described previously. To assess the inhibition of DNA amplification, 1.5 µg AOD analog was added to the polymerase chain reaction (PCR) mixture. The PCR solution consisted of 0.2 µg purified gDNA, 5 µL 10× PCR buffer with MgCl2, 4 µL of each dNTP at 2.5 mM, 0.25 μL Ex Taq polymerase (Takara Bio, Shiga, Japan), 2.0 pmol each of primers 27F (5′-[…]-3′) and 1492R (5′-TACGGCTACCTTGTTACGA-CTT-3′), and up to 50 µL sterile distilled water. The PCR thermal cycling conditions were as follows: initial denaturation at 94 °C for 5 min; 30 cycles of 94 °C for 30 s, 55 °C for 30 s, and 72 °C for 2 min; and a final extension for 10 min at 72 °C. PCR was conducted using a Type 9700 Thermal Cycler (Perkin-Elmer, Norwalk City, CA, USA). The PCR products were confirmed through 1.5% agarose gel electrophoresis with 0.5 μg/mL EtBr. Piscidin 1 was used as a positive control and 0.01% HAc was used as a negative control.

SMILES	Minimal Effective Concentration (B. subtilis KCTC1021) [µg/mL]	Minimal Effective Concentration (C. acnes KCTC3314) [µg/mL]	Minimal Effective Concentration (S. epidermidis KCTC1917) [µg/mL]	Minimal Effective Concentration (S. mutans KCCM40105) [µg/mL]	Minimal Effective Concentration (A. hydrophila KCTC2358) [µg/mL]	Minimal Effective Concentration (E. coli D31) [µg/mL]	Minimal Effective Concentration (E. coli ML35p) [µg/mL]	Minimal Effective Concentration (P. aeruginosa KCTC2004) [µg/mL]	Minimal Effective Concentration (S. enterica KCTC2514) [µg/mL]	Minimal Effective Concentration (S. sonnei KCTC2009) [µg/mL]	Minimal Effective Concentration (C. albicans KCTC7965) [µg/mL]	antimicrobial activity (in words) [1]	electrophoretic mobility of the DNA (DNA-binding ability) (100-bp DNA ladder)	competitive binding between DNA and DNA polymerase (electrophoretic mobility of DNA) [2]	inhibition of DNA amplification (PCR) [3]
CC(C)C[C@@H]1NC(=O)[C@H](CO)NC(=O)CNC(=O)[C@H](C)NC(=O)[C@@H](N)CSSC[C@@H](C(=O)O)NC(=O)[C@H]([C@@H](C)O)NC(=O)[C@H](CC(C)C)NC(=O)[C@H](CCCNC(=N)N)NC1=O [Analog A0] (H-CAGSLRLTC-OH; disulfide 1-9)	>100.0	>100.0	>100.0	>100.0	>100.0	>100.0	>100.0	>100.0	>100.0	>100.0	>125.0	no activity against any of the tested strains			
CC(=O)N[C@H]1CSSC[C@@H](C(N)=O)NC(=O)[C@H](CCCNC(=N)N)NC(=O)[C@H](CC(C)C)NC(=O)[C@H](CCCNC(=N)N)NC(=O)[C@H](CCCNC(=N)N)NC(=O)[C@H](Cc2c[nH]c3ccccc23)NC(=O)CNC(=O)[C@H](C)NC1=O [Analog A1] (Ac-CAGWRRLRC-NH2; disulfide 1-9)	14.0	>100.0	>100.0	68.0	17.0	42.0	>100.0	15.0	24.0	40.0	>125.0	much weaker antimicrobial activity than the other analogs	inhibited	inhibited	partially or completely inhibited
